B1: fibroblast growth factor 7: growth factor from Sino Biological (protein, UniProt P21781 32-194, looked up)
Fibroblast growth factor 7: CNDMTPEQMATNVNCSSPERHTRSYDYMEGGDIRVRRLFCRTQWYLRIDKRGKVKGTQEMKNNYNIMEIRTVAVGIVAIKGVESEFYLAMNKEGKLYAKKECNEDCNFKELILENHYNTYASAKWTHNGGEMFVALNQKGIPVRGKKTKKEQKTAHFLPMAIT

System: primary laryngeal cancer cells (No. 0S0064)
Assay: Effects of different factors added to basic medium BM on proliferation of primary laryngeal cancer cells (cell count)
Type: cell-based, human
Conditions: factor added to BM, in specific concentration ranges; 10 days of culture on irradiated NIH-3T3; FIGS. 1A-1F
Protocol: The cultured NIH-3T3 cells (purchased from ATCC, and cultured in DMEM culture solution containing 10% fetal bovine serum) were digested with 0.25% trypsin (purchased from Thermo Fisher), and the digestion was terminated by using DMEM culture solution (purchased from Corning) containing 5%(v/v) fetal bovine serum (purchased from ExCell Biotech Co., Ltd.), 100 U/mL penicillin and 100 μg/mL streptomycin; the resultant was collected into a 15 mL centrifuge tube and centrifuged at 1500 rpm for 4 minutes, and then the supernatant was discarded. The centrifuged cell sediments were resuspended in the above DMEM culture solution containing 10% fetal bovine serum and were counted with a flow imaging counter (JIMBIO FIL, Jiangsu Jimbio Technology Co., Ltd.). The cells were irradiated with γ-ray of 35 Gy irradiation dose, and then were inoculated in a culture vessel at a density of 2×10^4 cells/cm^2. The cells were incubated in a 37° C. incubator until the cells adhere to the wall. Before the inoculation of primary cells, the culture medium was removed from the culture vessel.
Preparation of basic medium (abbreviated as BM): BM was prepared by adding 0.2 vol. % of Primocin (purchased from Invivogen, with a concentration of 50 mg/mL) to the commercial DMEM/F-12 medium to provide a final concentration of 100 μg/mL.
Next, different kinds and concentrations of additive factors (Table 3) were added to the basic medium (BM), so as to prepare culture mediums for laryngeal cancer epithelial cells containing different additive components.
The culture mediums with different components were added at a volume of 500 μl/well to 48-well plates which were pre-laid with γ-ray irradiated NIH-3T3 cells. Laryngeal cancer cells (No. 0S0064) isolated from laryngeal cancer tissue according to the same method as described in Example 1 were inoculated at a cell count of 4×10^4cells/well in the above-mentioned 48-well culture plates which were pre-laid with γ-ray irradiated NIH-3T3 cells. After surface disinfection, the plates were placed in a 37° C., 5% CO2 incubator (purchased from Thermo Fisher), such that equal numbers of freshly isolated laryngeal cancer cells (No. 0S0064) were cultured under different medium formulations. The culture mediums were replaced and the trophoblastic cells were supplemented every 4 days. after the start of culture. After 10 days of culture, cell counts were performed. The basic medium (BM) without addition of any additive was used as the experimental control.
As shown in the figures, adding different concentrations of different factors according to Table 3 to BM would result in different effects on cell proliferation.

Molecule | effect on cell proliferation (ratio of cell number to that in basic medium BM)
CN1C(=O)C(c2c(F)cccc2F)N(C)c2nc(Nc3ccc(S(N)(=O)=O)cc3)ncc21 (stereo not drawn) [Compound 1, 4-((7-(2,6-difluorophenyl)-5,8-dimethyl-6-oxo-5,6,7,8-tetrahydropteridin-2-yl)amino)benzsulfamide] | certain promoting effects on cell proliferation
Cc1cccc(-c2nn(C(=S)Nc3ccccc3)cc2-c2ccnc3ccccc23)n1 [Compound A83-C1, A83-C1, reference compound] | certain promoting effects on cell proliferation
C[C@@H](N)[C@H]1CC[C@H](C(=O)Nc2ccncc2)CC1 [Compound Y27632, Y27632, reference compound] | certain promoting effects on cell proliferation
hepatocyte growth factor: growth factor from Sino Biological | certain promoting effects on cell proliferation
insulin-like growth factor 1: growth factor from Sino Biological | certain promoting effects on cell proliferation
B1 | certain promoting effects on cell proliferation

— patent US20230212523A1, “CULTURE MEDIUM FOR LARYNGEAL CANCER EPITHELIAL CELLS, CULTURE METHOD, AND APPLICATION THEREOF” (CAS (Hefei) Institute of Technology Innovation, priority 2020, published 2023)
